Source: the supplement of paper PMC11061612

Tests used:
Assay in all cases: combination Emax (second highest fraction inhibited in the dose matrix, 72 h); higher = more inhibition; extreme values may be limits of the assay
AGS (Gastric Carcinoma) = test system: AGS (Gastric Carcinoma)
Outline: (§1)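 After 24 hours at 37°C and 5% CO2 in 1536-well plates, cells in DMEM/F12 or RPMI plus 10% FBS received two-drug dose matrices for 72 hours. Viability came from CellTiter-Glo 2.0 luminescence and was scaled as inhibition, anchored at 0 by vehicle wells and at 1 by blank wells. Combination Emax is taken as the second-highest inhibition in the matrix, and Bliss excess as the observed combination effect less EA + EB − EA·EB, with EA and EB the single-agent effects.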

[1] = test system: LS-180 (Colorectal Carcinoma)
Outline: as §1

[2] = test system: MDA-MB-361 (Breast Carcinoma)
Outline: as §1

[3] = test system: HT-1376 (Bladder Carcinoma)
Outline: as §1

[4] = test system: DoTc2-4510 (Cervical Carcinoma)
Outline: as §1

[5] = test system: SK-ES-1 (Ewing's Sarcoma)
Outline: as §1

T98G (Glioblastoma) = test system: T98G (Glioblastoma)
Outline: as §1

[6] = test system: HO-1-N-1 (Oral Cavity Carcinoma)
Outline: as §1

[7] = test system: COLO-205 (Colorectal Carcinoma)
Outline: as §1

[8] = test system: Hs-578-T (Breast Carcinoma)
Outline: as §1

[9] = test system: B-CPAP (Thyroid Gland Carcinoma)
Outline: as §1

[10] = test system: NCI-H82 (Small Cell Lung Carcinoma)
Outline: as §1

SMILES	combination Emax (AGS (Gastric Carcinoma))	combination Emax [1]	combination Emax [2]	combination Emax [3]	combination Emax [4]	combination Emax [5]	combination Emax (T98G (Glioblastoma))	combination Emax [6]	combination Emax [7]	combination Emax [8]	combination Emax [9]	combination Emax [10]
Cc1c2c(nn1C)CSCc1cc(n(C)n1)CSc1cc(c3ccccc3c1)OCCCc1c(C(=O)O)n(C)c3c-2c(Cl)ccc13 [AZD5991] + Cc1cc2ncnn2cc1Nc1ncc2c(n1)n(C1CCOCC1)c(=O)n2C [AZD7648] (first compound max 1 µM, 7x7, partner max 10 µM)	0.233	0.256	0.816	0.221	0.244	0.813	0.361	0.794	0.298	0.63	0.365	0.927
Cc1cc2ncnn2cc1Nc1ncc2c(n1)n(C1CCOCC1)c(=O)n2C [AZD7648] + O=C(c1cc(Cc2n[nH]c(=O)c3ccccc23)ccc1F)N1CCN(C(=O)C2CC2)CC1 [Olaparib] (first compound max 10 µM, 7x7, partner max 10 µM)	0.204	0.338	0.406	0.0682	0.277	0.923	0.203	0.324	0.0328	0.507	0.265	0.333
NC1(C(=O)N[C@@H](CCO)c2ccc(Cl)cc2)CCN(c2ncnc3[nH]ccc23)CC1 [Capivasertib] + C[C@@H]1COCCN1C2=NC(=NC(=C2)C3(CC3)[S@](=N)(=O)C)C4=C5C=CNC5=NC=C4 [AZD6738] (first compound max 10 µM, 7x7, partner max 10 µM)	0.837	0.825	0.78	0.377	0.45	0.876	0.867	0.869	0.637	0.823	0.719	0.967
Cc1c2c(nn1C)CSCc1cc(n(C)n1)CSc1cc(c3ccccc3c1)OCCCc1c(C(=O)O)n(C)c3c-2c(Cl)ccc13 [AZD5991] + CN(C)CCCOc1ccc(-c2ccc3ncc4c(c3c2)n(C2CCOCC2)c(=O)n4C)cn1 [AZD0156] (first compound max 1 µM, 7x7, partner max 1 µM)	0.255	0.196	0.791	0.196	0.326	0.817	0.283	0.771	0.725	0.585	0.237	0.941
COc1nnc2ccc(N3CCC(c4ccc(OCCN5CCN(C)C(=O)[C@H]5C)cc4)CC3)nn12 [AZD5153] + CCN(CCO)CCCOc1ccc2c(Nc3cc(CC(=O)Nc4cccc(F)c4)[nH]n3)ncnc2c1 [AZD2811] (first compound max 1 µM, 7x7, partner max 1 µM)	0.936	0.617	0.49	0.256	0.381	0.941	0.491	0.815	0.869	0.771	0.645	0.481
CN(C)CCCOc1ccc(-c2ccc3ncc4c(c3c2)n(C2CCOCC2)c(=O)n4C)cn1 [AZD0156] + C[C@@H]1COCCN1C2=NC(=NC(=C2)C3(CC3)[S@](=N)(=O)C)C4=C5C=CNC5=NC=C4 [AZD6738] (first compound max 1 µM, 7x7, partner max 10 µM)	0.706	0.694	0.9	0.655	0.811	0.855	0.855	0.809	0.247	0.885	0.479	0.948
Cc1c2c(nn1C)CSCc1cc(n(C)n1)CSc1cc(c3ccccc3c1)OCCCc1c(C(=O)O)n(C)c3c-2c(Cl)ccc13 [AZD5991] + CC1(C)CCC(CN2CCN(c3ccc(C(=O)NS(=O)(=O)c4ccc(NCC5CCOCC5)c([N+](=O)[O-])c4)c(Oc4cnc5[nH]ccc5c4)c3)CC2)=C(c2ccc(Cl)cc2)C1 [Venetoclax] (first compound max 1 µM, 7x7, partner max 1 µM)	0.665	0.191	0.889	0.142	0.287	1	0.283	0.979	0.135	0.774	0.18	0.914
Cc1c2c(nn1C)CSCc1cc(n(C)n1)CSc1cc(c3ccccc3c1)OCCCc1c(C(=O)O)n(C)c3c-2c(Cl)ccc13 [AZD5991] + Cn1cnc2c(F)c(Nc3ccc(Br)cc3Cl)c(C(=O)NOCCO)cc21 [Selumetinib] (first compound max 1 µM, 7x7, partner max 3 µM)	0.964	0.589	0.816	0.272	0.432	0.809	0.249	0.919	0.828	0.54	0.299	0.922
COc1cccc(OCCCN)c1-c1cc(Nc2cnc(C#N)cn2)n[nH]1 [Prexasertib] + CN(C)CCCOc1ccc(-c2ccc3ncc4c(c3c2)n(C2CCOCC2)c(=O)n4C)cn1 [AZD0156] (first compound max 1 µM, 7x7, partner max 1 µM)	0.537	0.789	0.954	0.471	0.89	0.948	0.899	0.913	0.673	0.942	0.686	1
